Biological target: T1, KRAS G12C 1-169, his-tagged protein, GDP-loaded (Homo sapiens, UniProt P01116, G12C)
T1 construct: KRAS G12C 1-169, his-tagged protein, GDP-loaded
Experiment: Biochemical assay: covalent modification of KRAS G12C measured by mass spectrometry (RapidFire/TOF or Q-Exactive)
Settings: covalent binding to KRAS G12C
In short: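 Covalent adduct formation read by intact-mass spectrometry (TOF or Q Exactive Plus, charge envelopes deconvoluted into modified and unmodified species) after formic acid quench. Reactions contained 2 μM GDP-bound KRAS G12C 1-169 (his-tag) in Hepes/NaCl/MgCl2 buffer plus 10, 30 or 100 μM final compound, held 30 min, 2 h or 24 h at room temperature.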

Q: C=CC(=O)N1CCN(c2nc(OCCN(CC)CC)nc3c(F)c(-c4c(C)ccc5[nH]ncc45)c(Cl)cc23)CC1 [Example I-130, 1-(4-(6-chloro-2-(2-(diethyl-amino)ethoxy)-8-fluoro-7-(5-methyl-1H-indazol-4-yl)quinazolin-4-yl)piperazin-1-yl) prop-2-en-1-one] was tested. Which Binding % (compounds of structure (I)) did it give?
A: +++ (+++ indicates binding activity greater than 90%)

Q: How did the Binding % (compounds of structure (I)) turn out when C=CC(=O)N1CCN(c2nc(NC3CCN(c4ncccn4)CC3)nc3c(F)c(-c4c(C)ccc5[nH]ncc45)c(Cl)cc23)CC1 [Example I-184, 1-(4-(6-chloro-8-fluoro-7-(5-methyl-1H-indazol-4-yl)-2-((1-(pyrimidin-2-yl)piperidin-4-yl)amino)quinazolin-4-yl)piperazin-1-yl) prop-2-en-1-one] was run?
A: + (+ indicates binding activity up to 50%)

Q: C=CC(=O)N1CCN(c2nc(OCCN(CC)CC)nc3c(F)c(-c4c(O)cccc4F)c(Cl)cc23)CC1 (atropisomer, axis not shown) [Example I-87, (S)-1-(4-(6-chloro-2-(2-(diethylamino)ethoxy)-8-fluoro-7-(2-fluoro-6-hydroxyphenyl)quinazolin-4-yl)piperazin-1-yl) prop-2-en-1-one] was tested. Which Binding % (compounds of structure (I)) did it give?
A: +++ (+++ indicates binding activity greater than 90%)

Q: How did the Binding % (compounds of structure (II)) turn out when C=CC(=O)N1CCC(Nc2ncnc3c(F)c(-c4c(O)cccc4F)c(Cl)cc23)C1 (stereo not drawn) [II-9, 1-(3-((6-chloro-8-fluoro-7-(2-fluoro-6-hydroxyphenyl)quinazolin-4-yl)amino)pyrrolidin-1-yl)prop-2-en-1-one] was run?
A: + (+ indicates binding activity up to 50%)

Q: Which Binding % (compounds of structure (I)) does the source give for C=CC(=O)N1CCN(c2nc(OCCC3CCN(C4CC4)CC3)nc3c(F)c(-c4c(O)cccc4F)c(Cl)cc23)CC1 [Example I-192, 1-(4-(6-chloro-2-(2-(1-cyclopropyl-piperidin-4-yl)ethoxy)-8-fluoro-7-(2-fluoro-6-hydroxyphenyl)quinazolin-4-yl)piperazin-1-yl) prop-2-en-1-one] here?
A: +++ (+++ indicates binding activity greater than 90%)

Q: C=CC(=O)N1CCN(c2ncnc3c(F)c(-c4c(O)cccc4F)c(Cl)cc23)CC1C(F)(F)F (stereo not drawn) [III-11, 1-(4-(6-chloro-8-fluoro-7-(2-fluoro-6-hydroxy-phenyl)quinazolin-4-yl)-2-(trifluoro-methyl)piperazin-1-yl)prop-2-en-1-one] was tested. Which Binding % (compounds of structure (III)) did it give?
A: +++ (+++ indicates binding activity greater than 90%)

Q: For C=CC(=O)N1CCN(c2nc(N3CC(N(CC)CC)C3)nc3c(F)c(-c4c(C)ccc5[nH]ncc45)c(Cl)cc23)CC1 [Example I-144, 1-(4-(6-chloro-2-(3-(diethylamino)azetidin-1-yl)-8-fluoro-7-(5-methyl-1H-indazol-4-yl)quinazolin-4-yl)piperazin-1-yl) prop-2-en-1-one], which Binding % (compounds of structure (I)) is on record?
A: +++ (+++ indicates binding activity greater than 90%)

Q: With C=CC(=O)N1CCN(c2nc(OCCN3CC(F)(F)C3)nc3c(F)c(-c4c(O)cccc4F)c(Cl)cc23)CC1 [Example I-36, 1-(4-(6-chloro-2-(2-(3,3-difluoroazetidin-1-yl)ethoxy)-8-fluoro-7-(2-fluoro-6-hydroxyphenyl)quinazolin-4-yl)piperazin-1-yl) prop-2-en-1-one] as the compound, how does the Binding % (compounds of structure (I)) read?
A: +++ (+++ indicates binding activity greater than 90%)

Q: With C=CC(=O)N1CCN(c2nc(NC3CCN(C4CC4)CC3)nc3c(F)c(-c4c(C)ccc5[nH]ncc45)c(Cl)cc23)CC1 (atropisomer, axis not shown) [Example I-81, (S)-1-(4-(6-chloro-2-(1-cyclopropyl-piperidin-4-ylamino)-8-fluoro-7-(5-methyl-1H-indazol-4-yl)quinazolin-4-yl)piperazin-1-yl)prop-2-en-1-one] as the compound, how does the Binding % (compounds of structure (I)) read?
A: + (+ indicates binding activity up to 50%)

Q: How did the Binding % (compounds of structure (II)) turn out when C=CC(=O)Nc1cccc(-c2ncnc3c(F)c(-c4c(O)cccc4F)c(Cl)cc23)c1 [II-11, N-(3-(6-chloro-8-fluoro-7-(2-fluoro-6-hydroxyphenyl)quinazolin-4-yl)phenyl)acrylamide] was run?
A: + (+ indicates binding activity up to 50%)

Q: C=CC(=O)N1CCN(c2nc(OCCN3CCC(F)(F)C3)nc3c(F)c(-c4c(O)cccc4F)c(Cl)cc23)CC1 [Example I-30, 1-(4-(6-chloro-2-(2-(3,3-difluoro-pyrrolidin-1-yl)ethoxy)-8-fluoro-7-(2-fluoro-6-hydroxyphenyl)quinazolin-4-yl)piperazin-1-yl) prop-2-en-1-one] was tested. Which Binding % (compounds of structure (I)) did it give?
A: +++ (+++ indicates binding activity greater than 90%)

Q: How did the Binding % (compounds of structure (I)) turn out when C=CC(=O)N1CCN(c2nc(CCN3CC(C)(N(C)C)C3)nc3c(F)c(-c4c(O)cccc4F)c(Cl)cc23)CC1 [Example I-198, 1-(4-(6-chloro-2-(2-(3-(dimethyl-amino)-3-methyl-azetidin-1-yl)ethyl)-8-fluoro-7-(2-fluoro-6-hydroxyphenyl)quinazolin-4-yl)piperazin-1-yl) prop-2-en-1-one] was run?
A: ++ (++ indicates binding activity from 50 to 90%)

Q: How did the Binding % (compounds of structure (I)) turn out when C=CC(=O)N1CCN(c2nc(NC3CCN(C4CCC4)CC3)nc3c(F)c(-c4c(C)ccc5[nH]ncc45)c(Cl)cc23)CC1 [Example I-132, 1-(4-(6-chloro-2-(1-cyclobutyl-piperidin-4-ylamino)-8-fluoro-7-(5-methyl-1H-indazol-4-yl)quinazolin-4-yl)piperazin-1-yl) prop-2-en-1-one] was run?
A: +++ (+++ indicates binding activity greater than 90%)

Q: Which Binding % (compounds of structure (III)) does the source give for C=CC(=O)N1C[C@@H](C)N(c2ncnc3c(F)c(-c4cc(O)cc5ccccc45)c(Cl)cc23)[C@@H](C)C1 [III-41, 1-((3S,5R)-4-(6-chloro-8-fluoro-7-(3-hydroxy-naphthalen-1-yl)quinazolin-4-yl)-3,5-dimethyl-piperazin-1-yl)prop-2-en-1-one] here?
A: ++ (++ indicates activity from 50% to 90%)

Q: C=CC(=O)N1CCN(c2nc(NC3CC4CCC(C3)N4C3CC3)nc3c(F)c(-c4c(C)ccc5[nH]ncc45)c(Cl)cc23)CC1 (stereo not drawn) [Example I-188, 1-(4-(6-chloro-2-((8-cyclopropyl-8-azabicyclo[3.2.1]octan-3-yl)amino)-8-fluoro-7-(5-methyl-1H-indazol-4-yl)quinazolin-4-yl)piperazin-1-yl) prop-2-en-1-one] was tested. Which Binding % (compounds of structure (I)) did it give?
A: ++ (++ indicates binding activity from 50 to 90%)

Q: Which Binding % (compounds of structure (I)) does the source give for C=CC(=O)N1CCN(c2nc(OCc3ccc(C)nc3)nc3c(F)c(-c4c(O)cccc4F)c(Cl)cc23)CC1 [Example I-104, 1-(4-(6-chloro-8-fluoro-7-(2-fluoro-6-hydroxyphenyl)-2-((6-methyl-pyridin-3-yl)methoxy)quinazolin-4-yl)piperazin-1-yl) prop-2-en-1-one] here?
A: + (+ indicates binding activity up to 50%)

Q: C=CC(=O)N1CCN(c2nc(N3CC4(COC4)C3)nc3c(F)c(-c4c(O)cccc4F)c(Cl)cc23)CC1 [Example I-148, 1-(4-(6-chloro-8-fluoro-7-(2-fluoro-6-hydroxyphenyl)-2-(2-oxa-6-azaspiro[3.3]heptan-6-yl)quinazolin-4-yl)piperazin-1-yl) prop-2-en-1-one] was tested. Which Binding % (compounds of structure (I)) did it give?
A: +++ (+++ indicates binding activity greater than 90%)

Q: With C=CC(=O)N1CCN(c2nc(Oc3cnn(C)c3)nc3c(F)c(-c4c(O)cccc4F)c(Cl)cc23)CC1 [Example I-25, 1-(4-(6-chloro-8-fluoro-7-(2-fluoro-6-hydroxyphenyl)-2-(1-methyl-1H-pyrazol-4-yloxy)quinazolin-4-yl)piperazin-1-yl)prop-2-en-1-one] as the compound, how does the Binding % (compounds of structure (I)) read?
A: +++ (+++ indicates binding activity greater than 90%)

Q: With C=CC(=O)N1CCN(c2nc(N3CCOCC3)nc3c(F)c(-c4c(O)cccc4F)c(Cl)cc23)CC1 [Example I-47, 1-(4-(6-chloro-8-fluoro-7-(2-fluoro-6-hydroxyphenyl)-2-morpholino-quinazolin-4-yl)piperazin-1-yl)prop-2-en-1-one] as the compound, how does the Binding % (compounds of structure (I)) read?
A: +++ (+++ indicates binding activity greater than 90%)

Q: For C=CC(=O)Nc1cc(-c2ncnc3c(F)c(-c4c(O)cccc4F)c(Cl)cc23)ccn1 [II-12, N-(4-(6-chloro-8-fluoro-7-(2-fluoro-6-hydroxyphenyl)quinazolin-4-yl)pyridin-2-yl)acrylamide], which Binding % (compounds of structure (II)) is on record?
A: + (+ indicates binding activity up to 50%)

Q: With C=CC(=O)N1CCN(c2nc(NC3CN(c4ncccn4)C3)nc3c(F)c(-c4c(O)cccc4F)c(Cl)cc23)CC1 [Example I-182, 1-(4-(6-chloro-8-fluoro-7-(2-fluoro-6-hydroxyphenyl)-2-((1-(pyrimidin-2-yl)azetidin-3-yl)amino)quinazolin-4-yl)piperazin-1-yl) prop-2-en-1-one] as the compound, how does the Binding % (compounds of structure (I)) read?
A: + (+ indicates binding activity up to 50%)

Q: With C=CC(=O)N1CCN(c2nc(NCCc3ncccn3)nc3c(F)c(-c4c(O)cccc4F)c(Cl)cc23)CC1 [Example I-171, 1-(4-(6-chloro-8-fluoro-7-(2-fluoro-6-hydroxyphenyl)-2-((2-(pyrimidin-2-yl)ethyl)amino)quinazolin-4-yl)piperazin-1-yl) prop-2-en-1-one] as the compound, how does the Binding % (compounds of structure (I)) read?
A: ++ (++ indicates binding activity from 50 to 90%)

Q: Which Binding % (compounds of structure (I)) does the source give for C=CC(=O)N1CCN(c2nc(OCC(=O)N(C)C)nc3c(F)c(-c4c(C)ccc5[nH]ncc45)c(Cl)cc23)CC1 [Example I-4, 2-(4-(4-acryloylpiperazin-1-yl)-6-chloro-8-fluoro-7-(5-methyl-1H-indazol-4-yl)quinazolin-2-yloxy)-N,N-dimethyl-acetamide] here?
A: ++ (++ indicates binding activity from 50 to 90%)

Q: C=CC(=O)N1C[C@@H](C)N(c2ncnc3c(F)c(-c4c(O)cccc4F)c(Cl)cc23)[C@H](C)C1 [III-33, 1-((3R,5R)-4-(6-chloro-8-fluoro-7-(2-fluoro-6-hydroxy-phenyl)quinazolin-4-yl)-3,5-dimethyl-piperazin-1-yl)prop-2-en-1-one] was tested. Which Binding % (compounds of structure (III)) did it give?
A: + (+ indicates binding activity up to 50%)
